From article PMC2976784 (Proteins, 2010)

Biological target: T1, YndB (Bacillus subtilis, UniProt O31806)
T1 sequence (O31806 1-144): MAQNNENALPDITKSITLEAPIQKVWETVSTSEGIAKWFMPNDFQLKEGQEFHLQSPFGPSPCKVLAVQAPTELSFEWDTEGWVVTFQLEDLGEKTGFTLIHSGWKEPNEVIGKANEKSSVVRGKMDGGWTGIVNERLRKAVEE
Assay: 2D 1H-15N HSQC NMR titration, chemical shift perturbation fit
Format: binding

Row | Structure (SMILES) | Kd [µM]
1 | O=c1cc(-c2ccccc2)oc2ccccc12 [flavone] | 62 ± 9
2 | O=C(/C=C/c1ccccc1)c1ccccc1 [trans-chalcone] | < 1
3 | O=C1CC(c2ccccc2)Oc2ccccc21 (stereo not shown) [flavanone] | 32 ± 3
4 | O=c1c(O)c(-c2ccccc2)oc2ccccc12 [flavonol] | 86 ± 16
